From ChEMBL document CHEMBL1828619, “Identification of pyridazin-3-one derivatives as potent, selective histamine H₃ receptor inverse agonists with robust wake activity” (Bioorg Med Chem Lett, 2011)
Blank lines part the entries; values can stand above or below the molecule they belong to. Calls of active or inactive are those of the source. The calls are words filed in the database; no cut-off is given here.

Columns and labels:
Histamine H3 receptor [1] = molecular target: T1, Histamine H3 receptor (Homo sapiens, UniProt Q9Y5N1); test: Displacement of [3H]NAMH from human cloned histamine 3 receptor expressed in CHO cells; format: cell-based
Histamine H3 receptor [2] = molecular target: Histamine H3 receptor (Rattus norvegicus, UniProt Q9QYN8); test: Displacement of [3H]NAMH from rat cloned histamine 3 receptor expressed in CHO cells; format: cell-based
[3] = Oral bioavailability in rat; format: ADME, organism-based; conditions: in vivo
[4] = Ratio of drug level in brain to plasma in iv dosed rat; format: ADME, organism-based; conditions: read-out: BPR
Rattus norvegicus [5] = test: Induction of wake promoting activity in EEG/EMG Sprague-Dawley rat model assessed as increase in waking time at 10 mg/kg, ip after 7 hrs; format: functional; conditions: route intraperitoneal
[6] = Ratio of drug level in brain to plasma in rat at 5 mg/kg, po; format: ADME, organism-based; design: dose 5 mg/kg, route oral; conditions: read-out: BPR
[7] = Half life in mouse liver microsomes; format: ADME, Microsome
[8] = Half life in rat liver microsomes; format: ADME, Microsome
[9] = Half life in dog liver microsomes; format: ADME, Canis lupus familiaris, Microsome
[10] = Half life in monkey liver microsomes; format: ADME, Macaca mulatta, Microsome; conditions: rhesus monkey
[11] = Half life in human liver microsomes; format: ADME, Microsome
Cytochrome P450 1A2 = molecular target: T2, Cytochrome P450 1A2 (Homo sapiens, UniProt P05177); test: Inhibition of CYP1A2; format: ADME
T2 sequence (P05177 whole entry): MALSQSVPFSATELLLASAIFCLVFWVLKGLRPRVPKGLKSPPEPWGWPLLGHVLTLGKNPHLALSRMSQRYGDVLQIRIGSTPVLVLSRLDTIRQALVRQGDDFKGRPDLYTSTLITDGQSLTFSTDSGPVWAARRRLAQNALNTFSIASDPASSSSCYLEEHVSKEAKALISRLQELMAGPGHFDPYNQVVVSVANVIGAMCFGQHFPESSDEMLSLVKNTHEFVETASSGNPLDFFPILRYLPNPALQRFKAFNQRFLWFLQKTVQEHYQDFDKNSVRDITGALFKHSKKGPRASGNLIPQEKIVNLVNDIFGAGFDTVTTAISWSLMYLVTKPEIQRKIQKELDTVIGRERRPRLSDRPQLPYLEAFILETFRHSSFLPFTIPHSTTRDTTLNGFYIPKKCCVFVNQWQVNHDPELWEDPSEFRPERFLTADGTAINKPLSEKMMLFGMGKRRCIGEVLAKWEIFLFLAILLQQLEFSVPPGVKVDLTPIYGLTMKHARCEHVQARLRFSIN

Cytochrome P450 2C9 = Cytochrome P450 2C9 (Homo sapiens, UniProt P11712); test: Inhibition of CYP2C9; format: ADME
Cytochrome P450 2C19 = Cytochrome P450 2C19 (Homo sapiens, UniProt P33261); test: Inhibition of CYP2C19; format: ADME
Cytochrome P450 2D6 = Cytochrome P450 2D6 (Homo sapiens, UniProt P10635); test: Inhibition of CYP2D6; format: ADME
Cytochrome P450 3A4 = Cytochrome P450 3A4 (Homo sapiens, UniProt P08684); test: Inhibition of CYP3A4; format: ADME
[12] = Solubility of the compound at pH 2; format: physicochemical; conditions: buffer
[13] = Solubility of the compound at pH 7.4; format: physicochemical; conditions: buffer
[14] = molecular target: Sodium-dependent noradrenaline transporter (Homo sapiens) (UniProt P23975); test: Inhibition of NET at 10 uM
Histamine H3 receptor [15] = molecular target: T1, Histamine H3 receptor; test: Antagonist activity at human histamine 3 receptor by [35S]GTPgammaS binding assay; format: functional
Histamine H3 receptor [16] = molecular target: T1, Histamine H3 receptor; test: Inverse activity against human histamine 3 receptor by [35S]GTPgammaS binding assay; format: functional
[17] = Half life in rat at 1 mg/kg, iv after 6 hrs; format: ADME, organism-based; design: dose 1 mg/kg, route intravenous; conditions: in vivo
[18] = Clearance in rat at 1 mg/kg, iv after 6 hrs; format: ADME, organism-based; design: dose 1 mg/kg, route intravenous; conditions: in vivo
[19] = Volume of distribution in rat at 1 mg/kg, iv after 6 hrs; format: ADME, organism-based; design: dose 1 mg/kg, route intravenous; conditions: in vivo
[20] = AUC (0 to 6 hrs) in rat at 5 mg/kg, po; format: ADME, organism-based; design: time < 6 hr, dose 5 mg/kg, route oral; conditions: plasma
[21] = Cmax in rat at 5 mg/kg, po after 6 hrs; format: ADME, organism-based; design: dose 5 mg/kg, route oral; conditions: in vivo
[22] = Half life in rat at 5 mg/kg, po after 6 hrs; format: ADME, organism-based; design: dose 5 mg/kg, route oral; conditions: in vivo
[23] = Oral bioavailability in rat at 5 mg/kg after 6 hrs; format: ADME, organism-based; conditions: in vivo
Rattus norvegicus [24] = test: Inhibition of (R)-alpha-methyl histamine-induced dipsogenia in ip dosed rat; format: functional
Rattus norvegicus [25] = test: Induction of wake promoting activity in EEG/EMG Sprague-Dawley rat model assessed as increase in waking time at 3 mg/kg, ip after 4 hrs; format: functional; conditions: route intraperitoneal
Rattus norvegicus [26] = test: Induction of wake promoting activity in EEG/EMG Sprague-Dawley rat model assessed as increase in waking time at 10 mg/kg, ip after 4 hrs; format: functional; conditions: route intraperitoneal

T1 sequence (Q9Y5N1 whole entry): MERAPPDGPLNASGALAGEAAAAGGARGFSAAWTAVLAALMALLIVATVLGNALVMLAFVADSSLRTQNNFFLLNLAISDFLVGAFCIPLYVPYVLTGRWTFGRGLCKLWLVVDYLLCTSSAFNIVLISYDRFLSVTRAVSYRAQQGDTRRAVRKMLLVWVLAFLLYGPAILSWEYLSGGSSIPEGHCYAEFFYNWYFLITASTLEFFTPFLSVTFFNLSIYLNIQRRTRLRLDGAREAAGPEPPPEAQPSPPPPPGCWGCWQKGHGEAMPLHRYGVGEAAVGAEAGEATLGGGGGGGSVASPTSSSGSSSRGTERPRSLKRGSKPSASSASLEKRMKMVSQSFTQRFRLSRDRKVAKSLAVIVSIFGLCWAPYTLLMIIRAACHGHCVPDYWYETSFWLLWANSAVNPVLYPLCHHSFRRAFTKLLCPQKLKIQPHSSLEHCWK
Histamine H3 receptor (Rattus norvegicus, UniProt Q9QYN8), sequence (Q9QYN8 whole entry): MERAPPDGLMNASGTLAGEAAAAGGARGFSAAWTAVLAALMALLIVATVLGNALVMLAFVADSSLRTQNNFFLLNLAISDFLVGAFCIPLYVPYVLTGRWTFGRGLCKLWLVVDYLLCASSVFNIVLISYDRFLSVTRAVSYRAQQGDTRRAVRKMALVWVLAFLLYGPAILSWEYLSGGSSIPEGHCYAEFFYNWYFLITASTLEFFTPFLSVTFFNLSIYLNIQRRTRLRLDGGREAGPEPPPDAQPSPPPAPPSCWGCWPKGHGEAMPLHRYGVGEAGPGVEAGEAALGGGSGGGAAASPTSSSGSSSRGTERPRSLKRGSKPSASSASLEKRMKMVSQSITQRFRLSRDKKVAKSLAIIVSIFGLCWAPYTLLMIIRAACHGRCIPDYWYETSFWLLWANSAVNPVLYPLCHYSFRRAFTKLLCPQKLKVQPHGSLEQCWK
Cytochrome P450 2D6, sequence (P10635 whole entry): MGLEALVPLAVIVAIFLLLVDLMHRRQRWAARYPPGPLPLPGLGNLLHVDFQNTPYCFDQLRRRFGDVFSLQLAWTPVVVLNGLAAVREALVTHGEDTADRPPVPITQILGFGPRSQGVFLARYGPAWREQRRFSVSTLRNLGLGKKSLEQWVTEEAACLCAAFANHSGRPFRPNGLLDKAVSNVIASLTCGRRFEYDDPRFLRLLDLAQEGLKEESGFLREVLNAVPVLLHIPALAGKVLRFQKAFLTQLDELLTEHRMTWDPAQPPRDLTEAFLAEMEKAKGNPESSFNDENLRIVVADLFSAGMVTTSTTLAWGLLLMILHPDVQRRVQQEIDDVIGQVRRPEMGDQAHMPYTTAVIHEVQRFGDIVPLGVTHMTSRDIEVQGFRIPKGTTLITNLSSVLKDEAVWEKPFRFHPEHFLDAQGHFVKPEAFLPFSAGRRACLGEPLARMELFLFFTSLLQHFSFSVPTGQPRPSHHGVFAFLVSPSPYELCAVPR
Cytochrome P450 3A4, sequence (P08684 whole entry): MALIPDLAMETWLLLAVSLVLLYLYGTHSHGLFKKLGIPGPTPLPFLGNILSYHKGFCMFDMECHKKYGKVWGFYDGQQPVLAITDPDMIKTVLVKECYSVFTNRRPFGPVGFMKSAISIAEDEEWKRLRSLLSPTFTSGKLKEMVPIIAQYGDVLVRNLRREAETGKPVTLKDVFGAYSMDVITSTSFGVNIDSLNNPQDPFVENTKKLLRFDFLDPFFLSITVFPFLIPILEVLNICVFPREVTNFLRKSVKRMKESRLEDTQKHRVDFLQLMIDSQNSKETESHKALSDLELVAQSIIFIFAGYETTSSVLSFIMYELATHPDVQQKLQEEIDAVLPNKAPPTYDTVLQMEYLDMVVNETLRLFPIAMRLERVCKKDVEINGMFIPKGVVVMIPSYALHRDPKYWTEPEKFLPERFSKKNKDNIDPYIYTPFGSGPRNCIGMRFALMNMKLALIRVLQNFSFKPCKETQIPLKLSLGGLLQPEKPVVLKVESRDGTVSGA
Cytochrome P450 2C19, sequence (P33261 whole entry): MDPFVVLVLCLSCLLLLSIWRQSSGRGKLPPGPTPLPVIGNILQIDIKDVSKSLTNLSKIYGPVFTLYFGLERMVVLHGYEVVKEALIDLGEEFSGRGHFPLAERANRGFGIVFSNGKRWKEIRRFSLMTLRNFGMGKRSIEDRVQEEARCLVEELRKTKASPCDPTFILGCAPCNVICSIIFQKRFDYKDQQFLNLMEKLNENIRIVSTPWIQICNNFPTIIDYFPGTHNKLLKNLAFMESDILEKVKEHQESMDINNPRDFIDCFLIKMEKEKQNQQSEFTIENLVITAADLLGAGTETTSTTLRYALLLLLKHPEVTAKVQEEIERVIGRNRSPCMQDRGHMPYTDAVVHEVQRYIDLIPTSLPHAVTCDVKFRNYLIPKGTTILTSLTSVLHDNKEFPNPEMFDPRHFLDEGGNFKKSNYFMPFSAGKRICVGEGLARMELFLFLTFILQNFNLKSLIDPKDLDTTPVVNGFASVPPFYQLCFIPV
Sodium-dependent noradrenaline transporter (Homo sapiens), sequence (P23975 whole entry): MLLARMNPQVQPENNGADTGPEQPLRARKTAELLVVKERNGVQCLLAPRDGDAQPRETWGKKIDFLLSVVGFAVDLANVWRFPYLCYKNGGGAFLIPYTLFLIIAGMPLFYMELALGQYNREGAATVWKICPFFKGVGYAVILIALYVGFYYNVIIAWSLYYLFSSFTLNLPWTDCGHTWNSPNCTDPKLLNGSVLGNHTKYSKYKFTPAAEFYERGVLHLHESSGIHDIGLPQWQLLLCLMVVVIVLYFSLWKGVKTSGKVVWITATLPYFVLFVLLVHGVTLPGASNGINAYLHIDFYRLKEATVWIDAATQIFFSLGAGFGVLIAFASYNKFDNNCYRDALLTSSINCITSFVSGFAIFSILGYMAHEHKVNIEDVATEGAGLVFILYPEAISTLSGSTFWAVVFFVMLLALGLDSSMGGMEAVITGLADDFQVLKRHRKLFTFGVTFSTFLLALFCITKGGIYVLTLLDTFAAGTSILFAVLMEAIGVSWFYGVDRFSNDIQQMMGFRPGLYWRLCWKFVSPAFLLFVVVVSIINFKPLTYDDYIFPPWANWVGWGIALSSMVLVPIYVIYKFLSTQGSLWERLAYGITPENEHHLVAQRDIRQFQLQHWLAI
Cytochrome P450 2C9, sequence (P11712 whole entry): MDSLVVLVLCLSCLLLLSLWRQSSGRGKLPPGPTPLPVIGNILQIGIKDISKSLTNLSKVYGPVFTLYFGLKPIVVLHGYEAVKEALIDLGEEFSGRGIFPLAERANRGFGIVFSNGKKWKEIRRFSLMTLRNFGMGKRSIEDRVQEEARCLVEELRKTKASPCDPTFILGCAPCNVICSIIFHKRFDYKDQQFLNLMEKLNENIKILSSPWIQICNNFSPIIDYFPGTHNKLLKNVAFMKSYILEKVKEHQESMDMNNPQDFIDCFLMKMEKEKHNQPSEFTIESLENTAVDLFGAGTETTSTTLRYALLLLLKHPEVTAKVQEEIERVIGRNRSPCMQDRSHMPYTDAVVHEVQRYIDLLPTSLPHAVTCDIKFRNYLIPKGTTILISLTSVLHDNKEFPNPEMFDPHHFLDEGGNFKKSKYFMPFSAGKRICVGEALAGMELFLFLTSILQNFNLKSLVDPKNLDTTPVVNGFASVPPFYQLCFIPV

Structure (SMILES): C[C@@H]1CCCN1CCCOc1c(F)cc(-c2ccc(=O)n(C)n2)cc1F
Ki (Histamine H3 receptor [1]): 11 nM
Ki (Histamine H3 receptor [2]): 41 nM

Structure (SMILES): C[C@@H]1CCCN1CCCOc1ccc(-c2cc(-c3ccccn3)c(=O)[nH]n2)cc1
Ki (Histamine H3 receptor [1]): 3.1 nM
Ki (Histamine H3 receptor [2]): 10 nM
bioavailability [3]: < 10%
Kp [4]: < 1

Structure (SMILES): C[C@H](COc1ccc(-c2ccc(=O)n(C)n2)cc1)CN1CCC[C@H]1C
Time (Rattus norvegicus [5]): 196 min
Kp [6]: 2.5
Ki (Histamine H3 receptor [1]): 2.4 nM
Ki (Histamine H3 receptor [2]): 4.6 nM
half-life [7]: > 40 min
half-life [8]: > 40 min
half-life [9]: > 40 min
half-life [10]: > 40 min
half-life [11]: > 40 min
IC50 (Cytochrome P450 1A2): > 30000 nM
IC50 (Cytochrome P450 2C9): > 30000 nM
IC50 (Cytochrome P450 2C19): > 30000 nM
IC50 (Cytochrome P450 2D6): > 30000 nM
IC50 (Cytochrome P450 3A4): > 30000 nM
solubility [12]: > 250 µg/mL
solubility [13]: > 250 µg/mL
inhibition [14]: 19%
EC50 (Histamine H3 receptor [15]): 2.1 nM
Activity (Histamine H3 receptor [16]): Active
half-life [17]: 48 min
clearance [18]: 37 mL/min/kg
Vd [19]: 2.5 L/kg
AUC(0-t) at 6 h [20]: 892 ng·h/mL
Cmax [21]: 146 ng/mL
half-life [22]: 258 min
bioavailability [23]: 38%
ED50 (Rattus norvegicus [24]): 0.02 mg/kg
inhibition (Rattus norvegicus [24]): Dose-dependent effect
Time (Rattus norvegicus [25]): 166 min
Time (Rattus norvegicus [26]): 231 min

Structure (SMILES): COc1cc(OCCCN2CCC[C@H]2C)ccc1-c1ccc(=O)[nH]n1
Ki (Histamine H3 receptor [1]): 152 nM
Ki (Histamine H3 receptor [2]): 229 nM

Structure (SMILES): C[C@@H]1CCCN1CCCOc1ccc(-c2ccc(=O)n(C)n2)cc1Cl
Ki (Histamine H3 receptor [1]): 4.4 nM
Ki (Histamine H3 receptor [2]): 14 nM

Structure (SMILES): Cc1cc(=O)[nH]nc1-c1ccc(OCCCN2CCC[C@H]2C)cc1
Ki (Histamine H3 receptor [1]): 2.9 nM
Ki (Histamine H3 receptor [2]): 12 nM

Now from value to molecule:

Ki (Histamine H3 receptor [1]): 15 nM
Ki (Histamine H3 receptor [2]): 52 nM
Structure (SMILES): C[C@@H](COc1ccc(-c2ccc(=O)n(C)n2)cc1)CN1CCC[C@H]1C

Ki (Histamine H3 receptor [1]): 38 nM
Ki (Histamine H3 receptor [2]): 111 nM
Structure (SMILES): C[C@@H]1CCCN1CCCOc1ccc(-c2ccc(=O)[nH]n2)cc1C#N

Ki (Histamine H3 receptor [1]): 7.1 nM
Ki (Histamine H3 receptor [2]): 40 nM
Structure (SMILES): C[C@@H]1CCCN1CCCOc1c(F)cc(-c2ccc(=O)[nH]n2)cc1F

Kp [6]: 3.5
AUC(0-t) at 6 h [20]: 538 ng·h/mL
half-life [22]: 138 min
Structure (SMILES): C[C@@H]1CCCN1CCCOc1ccc(-c2ccc(=O)n(C)n2)cc1
